# Numbers after ± are expanded uncertainties.
# Details: Liquid, Closed cell (Static) method
structure (smiles),measurement,setting,value
FCF [difluoromethane],vapor or sublimation pressure,280.59 K,1022 ± 14 kPa
same,vapor or sublimation pressure,283.05 K,1109 ± 14 kPa
same,vapor or sublimation pressure,285.52 K,1195 ± 14 kPa
same,vapor or sublimation pressure,288.02 K,1280 ± 14 kPa
same,vapor or sublimation pressure,290.46 K,1364 ± 14 kPa
same,vapor or sublimation pressure,293.02 K,1474 ± 14 kPa
same,vapor or sublimation pressure,295.49 K,1578 ± 14 kPa
same,vapor or sublimation pressure,298.01 K,1684 ± 14 kPa
same,vapor or sublimation pressure,300.48 K,1793 ± 15 kPa
same,vapor or sublimation pressure,302.94 K,1918 ± 15 kPa
same,vapor or sublimation pressure,305.46 K,2051 ± 15 kPa
same,vapor or sublimation pressure,307.91 K,2179 ± 15 kPa
same,vapor or sublimation pressure,310.48 K,2318 ± 15 kPa
same,vapor or sublimation pressure,312.9 K,2459 ± 15 kPa
same,vapor or sublimation pressure,315.43 K,2614 ± 15 kPa
same,vapor or sublimation pressure,317.89 K,2772 ± 15 kPa
same,vapor or sublimation pressure,320.41 K,2948 ± 15 kPa
same,vapor or sublimation pressure,322.92 K,3120 ± 15 kPa
same,vapor or sublimation pressure,325.42 K,3303 ± 15 kPa
same,vapor or sublimation pressure,327.9 K,3498 ± 16 kPa
same,vapor or sublimation pressure,330.35 K,3694 ± 16 kPa
same,vapor or sublimation pressure,332.91 K,3910 ± 16 kPa
same,vapor or sublimation pressure,335.4 K,4138 ± 16 kPa
same,vapor or sublimation pressure,337.93 K,4370 ± 16 kPa
same,vapor or sublimation pressure,340.43 K,4602 ± 17 kPa
same,vapor or sublimation pressure,342.88 K,4854 ± 17 kPa
same,vapor or sublimation pressure,345.4 K,5117 ± 17 kPa
same,vapor or sublimation pressure,347.89 K,5392 ± 17 kPa
C=CCC [1-butene],vapor or sublimation pressure,302.9 K,343 ± 14 kPa
same,vapor or sublimation pressure,307.83 K,396 ± 14 kPa
same,vapor or sublimation pressure,312.96 K,456 ± 14 kPa
same,vapor or sublimation pressure,318.05 K,521 ± 14 kPa
same,vapor or sublimation pressure,322.94 K,593 ± 14 kPa
same,vapor or sublimation pressure,328.06 K,671 ± 14 kPa
same,vapor or sublimation pressure,332.97 K,759 ± 14 kPa
same,vapor or sublimation pressure,337.99 K,855 ± 14 kPa
same,vapor or sublimation pressure,342.98 K,957 ± 14 kPa
same,vapor or sublimation pressure,347.93 K,1069 ± 14 kPa
same,vapor or sublimation pressure,353.18 K,1197 ± 14 kPa
"FC(F)(F)C1(F)OC1(F)F (centres undefined) [2,2,3-trifluoro-3-(trifluoromethyl)oxirane]",vapor or sublimation pressure,302.95 K,786 ± 14 kPa
same,vapor or sublimation pressure,307.93 K,896 ± 14 kPa
same,vapor or sublimation pressure,312.93 K,1015 ± 14 kPa
same,vapor or sublimation pressure,317.86 K,1150 ± 14 kPa
same,vapor or sublimation pressure,322.92 K,1298 ± 14 kPa
same,vapor or sublimation pressure,327.88 K,1474 ± 14 kPa
same,vapor or sublimation pressure,332.87 K,1658 ± 14 kPa
same,vapor or sublimation pressure,337.87 K,1864 ± 15 kPa
same,vapor or sublimation pressure,342.88 K,2075 ± 15 kPa
same,vapor or sublimation pressure,347.85 K,2313 ± 15 kPa
